The text below walks through data of paper PMC9964319, “Half-Sandwich Rhodium Complexes with Releasable N-Donor Monodentate Ligands: Solution Chemical Properties and the Possibility for Acidosis Activation” (Pharmaceutics, 2023).

Molecules are shown by their SMILES. Read-outs that look alike come from different tables or passages of the source.

The nature of series [1]: Formation constants of mixed-ligand half-sandwich complexes (UV-vis and 1H NMR). It is filed as physicochemical. The settings on record: aqua complex + monodentate ligand; I = 0.10 M (KCl); t = 25.0 °C; UV-vis and 1H NMR. As for the experimental part: NMR spectroscopic studies were carried out on a Bruker Avance III HD Ascend 500 Plus instrument. For the aqueous samples, ^1H NMR spectra were recorded with the WATERGATE water suppression pulse scheme using DSS internal standard. The highest peak of DSS was 0.00 ppm. The measurement was very similar to the UV-vis measurement since the complex–to–monodentate ligand ratio was also between 0–10 equivalents; the spectra were recorded after the given waiting time. […] This technique was useful in those cases where no spectral change was visible during the UV-vis titrations.
In both measurement methods, the formation constant (K) was obtained using the computer program PSEQUAD [38].
It is worthwhile to mention that the liberation of the bidentate ligand was not detected even at higher monodentate ligand excess (~10), which means that the disruption of the bond between the bidentate ligand and the metal center is not feasible under these conditions. The calculated formation constants are compared in Figure 5 and are collected in Table S2. The formation of the mixed-ligand complexes was not detected in three cases under the applied conditions, namely [Ru(p-cym)(en)(mim)]^2+, [Ru(p-cym)(phen)(mim)]^2+, and [Ru(p-cym)(en)(Py)]^2+. For these complexes, only a higher limit of the formation constant could be given, assuming that a maximum of 5% of the complex would form (limit of detection) under the conditions used for ^1H NMR spectroscopy. Based on Figure 5, the following trends are observed in the formation constants: (i) [RhCp*(en)(H2O)]^2+ and [RhCp*(phen)(H2O)]^2+ have a stronger monodentate ligand-binding ability than the Ru(p-cym) analogs; (ii) the formation constants of the [Ru(p-cym)(8HQH-1)(N)]^+ complexes are similar or somewhat higher than those of the RhCp* analogs; (iii) a stability trend for the monodentate ligand: mim > bim > Py (iv) and the bidentate ligand: 8HQH-1 > phen ≥ en can be seen.

Series [2] has as its system E. coli 32313 (resistant). Briefly: Antibacterial assay, MIC in 96-well plates at different pH. It is filed as cell-based. The procedure, abridged: (§1)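 Broth microdilution MIC per CLSI in Mueller Hinton broth, with overnight culture diluted 10,000-fold as inoculum. Each strain and compound tested at pH 5, 6, 7 and 8, in triplicate.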
Series [3] has as its system E. coli ATCC 25922 (sensitive). The series is described as above. Type of series: cell-based. The procedure, abridged:
as §1

Series [4] concerns S. aureus ATCC 25923 (methicillin-susceptible). Described as above. It is filed as cell-based. The procedure, abridged:
as §1

The test system of a further series is S. aureus 272123 (MRSA). The series is described as above. It is filed as cell-based. The procedure, abridged:
as §1

The nature of series [5]: Computed fractions of mixed-ligand complexes as function of pH from formation constants. It is filed as physicochemical. The settings on record: 100 μM; ratio 1:1. The procedure:
With the help of these formation constants, the extent of complex formation can be estimated for a chosen monodentate ligand—complex chemical system under the desired conditions (concentration and pH). Figure 6 and Figure S25 show the computed fractions of the formed, mixed-ligand complexes between pH = 5 and 8 and at a 100 μM concentration (metal complex-to-monodentate ligand ratio = 1:1). The fraction at pH = 7.4 and at pH 6.0–6.7 were compared to each other.
As an example, the fractions of [Ru(p-cym)(8HQH−1)(mim)]^+ are shown in Figure S26 with decreasing concentration.
Formation constants shown in Figure 5 and in Table S2 were used for the calculation. Percentages indicate the fraction at pH = 7.4 (blue line) and in the range between pH = 6.0–6.7 (pink rectangle: possible pH of tumor microenvironment during acidosis).

A short description of series [6]: Fractions of mixed-ligand complexes at 1:1 ratio at pH 6.0 and 7.4 by 1H NMR (screening of monodentate ligands). Type of series: physicochemical. The settings on record: 1H NMR. The procedure: In the preliminary studies, the co-ordination ability of the monodentate ligands to the [RhCp*(en)(H2O)]^2+, [RhCp*(phen)(H2O)]^2+, and [RhCp*(8HQH-1)(H2O)]^+ complexes was tested (Chart 2). The samples contained the aqua complex and the monodentate ligand in a 1:1 ratio and were buffered at pH = 6.0 and pH = 7.4. For an ideal drug candidate, all of the monodentate ligand would be bound at pH 7.4; thus, the mixed-ligand complex would be present exclusively, which dissociates completely at pH 6.0.
Figure 1 Fractions of the formed mixed-ligand [RhCp*(N,N/O)(N)]^2+/+ complexes at c(complex):c(monodentate ligand) = 1:1 ratio measured at pH = 6.0 (full bars) and 7.4 (checkered bars). Fractions were determined by the integration of the peaks in the ^1H NMR spectra. The percentage values above the columns show the difference in the fractions of the mixed-ligand complex at the two pH values. {c([RhCp*(phen)(H2O)]^2+) = c([RhCp*(en)(H2O)]^2+) = 1 mM; c([RhCp*(8HQH−1)(H2O)]^+) = 500 μM; 10% D2O; pH = 6.0 or 7.4 (PBS’); t = 25.0 °C}. […] The percentages were assigned to (N,N) = en, (N,N) = phen and (N,O) = 8HQH-1 by bar colour only.

The subject of series [7] is Colo205 human colon adenocarcinoma cell line (doxorubicin-sensitive). Nature of the series: MTT assay, cytotoxicity at pH 6 and 7. Type of series: cell-based. The settings on record: Homo sapiens, COLO 205, Colo205, 72 h incubation, read-out: IC50. The gist of the method:
(§2)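 Colo205 and Colo320 cells at 1 × 10^4 cells/well in RPMI 1640 (10% FBS, HEPES) adjusted to pH 6.0 or 7.0, exposed to two-fold serial dilutions of freshly prepared complexes for 72 h at 37 °C. MTT read at 540/630 nm after SDS solubilisation. Values from sigmoidal dose–response fits, triplicates.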

Series [8] concerns Colo320 human colon adenocarcinoma cell line (doxorubicin-resistant). Nature of the series: MTT assay, cytotoxicity at pH 6 and 7. The settings on record: Homo sapiens, COLO 320, Colo320, 72 h incubation, read-out: IC50. Type of series: cell-based. The gist of the method: as §2
Where [9] appears, read: E. coli resistant, pH 5, after one day, read-out: MIC.
Setting [10] is: E. coli resistant, pH 8, after one day, read-out: MIC.
Setting [11] is: E. coli sensitive, pH 5, after one day, read-out: MIC.
Where [12] appears, read: E. coli sensitive, pH 8, after one day, read-out: MIC.
Setting [13] is: S. aureus sensitive, pH 8, after one day, read-out: MIC.
Where [14] appears, read: pH 5, after one day, read-out: MIC.
Where [15] appears, read: pH 8, after one day, read-out: MIC.

Procedure for physchem: pH-potentiometric measurements were performed to determine the protonation constants (Kp) of the ligands and the concentration of the stock solutions. These measurements were carried out at 25.0 ± 0.1 °C in water in a pH range between 2.0 and 11.5, titrating with carbonate-free KOH solution (0.10 M). […] A Thermo Scientific 0710A0 benchtop pH meter (Waltham, MA, USA), equipped with a Metrohm combined electrode (type 6.0234.100) and a Metrohm 665 Dosimat burette (Metrohm, Herisau, Switzerland) was used for these measurements. […] The initial volume of the samples was 10.0 mL, and the ligand concentration was 2.0 mM in the samples. Samples were degassed by bubbling purified argon prior to and during the measurements. The computer program Hyperquad2013 [28] was utilized to determine the protonation constants of the ligands and concentration.
The protonation constants (Kp) were determined by pH-potentiometric and UV-vis spectrophotometric titrations in the presence of 0.1 M KCl (see Table 1 and Figures S21 and S22 for examples).

In the case of `Cc1c(C)c(C)[c-](C)c1C.Cn1ccnc1.[O-]c1cccc2cccnc12.[Rh+3]` [[RhCp*(8HQH−1)(mim)]^+], the “Formation constant logK of mixed-ligand complex” value (“Formation constant logK” for short) in series [1] is given as 4.7 ± 0.2. Besides, the MIC is above 100 µM in [2] (setting [9]); above 100 µM in series [2] (E. coli resistant, pH 6, after one day, listed as [RhCp*(8HQH-1)Cl] +mim, read-out: MIC); above 100 µM in series [2] (E. coli resistant, pH 7, after one day, listed as [RhCp*(8HQH-1)Cl] +mim, read-out: MIC); above 100 µM in [2] (setting [10]); above 100 µM in series [3] (setting [11]); above 100 µM in series [3] (E. coli sensitive, pH 6, after one day, listed as [RhCp*(8HQH-1)Cl] +mim, read-out: MIC). For the same molecule, the MIC in [3] (E. coli sensitive, pH 7, after one day, listed as [RhCp*(8HQH-1)Cl] +mim, read-out: MIC) is recorded as above 100 µM; in [3] (setting [12]) it was above 100 µM; in series [4] (S. aureus sensitive, pH 7, after one day, read-out: MIC) it was 12.5 µM; in [4] (setting [13]), 12.5 µM; in the series with S. aureus 272123 (MRSA) (setting [14]) it was 50 µM; with S. aureus 272123 (MRSA) (pH 6, after one day, read-out: MIC), 25 µM. Also, the MIC with S. aureus 272123 (MRSA) (pH 7, after one day, read-out: MIC) amounted to 12.5 µM; with S. aureus 272123 (MRSA) (setting [15]), 12.5 µM. Also, in [5], the “difference in computed fraction (dissociated) when pH decreases from 7.4 to 6.0” value stood at 13%.

For `Cc1c(C)c(C)[c-](C)c1C.Cn1ccnc1.NCCN.[Rh+3]` [[RhCp*(en)(mim)]^2+], the “Formation constant logK” value in series [1] amounted to 4.2 ± 0.1. Further, the “Fraction of mixed-ligand complex” value in [6] (pH 6.0, PBS') stood at 52%; in series [6] (pH 7.4, PBS'), 82%.

Take `Cc1c(C)c(C)[c-](C)c1C.Cn1ccnc1.[Rh+3].c1cnc2c(c1)ccc1cccnc12` [[RhCp*(phen)(mim)]^2+]: the “Formation constant logK” value in [1] is 5.5 ± 0.1. The MIC in series [2] (setting [9]) was above 100 µM; in series [2] (E. coli resistant, pH 6, after one day, listed as [RhCp*(phen)Cl]Cl +mim, read-out: MIC), above 100 µM; in series [2] (E. coli resistant, pH 7, after one day, listed as [RhCp*(phen)Cl]Cl +mim, read-out: MIC) it was above 100 µM; in series [2] (setting [10]) it was above 100 µM; in [3] (setting [11]), above 100 µM; in series [3] (E. coli sensitive, pH 6, after one day, listed as [RhCp*(phen)Cl]Cl +mim, read-out: MIC) it was above 100 µM. Further, the MIC in series [3] (E. coli sensitive, pH 7, after one day, listed as [RhCp*(phen)Cl]Cl +mim, read-out: MIC) was above 100 µM; in series [3] (setting [12]), above 100 µM; in series [4] (S. aureus sensitive, pH 7, after one day, listed as [RhCp*(phen)Cl]Cl +mim, read-out: MIC), above 100 µM; in [4] (setting [13]) it was above 100 µM; in the series with S. aureus 272123 (MRSA) (setting [14]), above 100 µM; with S. aureus 272123 (MRSA) (pH 6, after one day, listed as [RhCp*(phen)Cl]Cl +mim, read-out: MIC) it was above 100 µM. Further, the minimal inhibitory concentration (MIC) was above 100 µM in the series on S. aureus 272123 (MRSA) (pH 7, after one day, listed as [RhCp*(phen)Cl]Cl +mim, read-out: MIC) and above 100 µM with S. aureus 272123 (MRSA) (setting [15]). In addition, the “difference in computed fraction (dissociated) when pH decreases from 7.4 to 6.0” value in series [5] is 25%.

In the series “physchem” (water with 0.10 M KCl), `NCc1ccccc1` [benzylamine] registered a pKa of 9.42 ± 0.01.

Molecule `Cn1ccnc1` [mim, 1-methylimidazole, reference compound] had a pKa in the series “physchem” of 7.14 ± 0.01. Moreover, the MIC in [2] (Escherichia coli, 24 h, E. coli resistant, pH 5, after one day, read-out: MIC) is above 100 µM; in [2] (Escherichia coli, 24 h, E. coli resistant, pH 6, after one day, read-out: MIC), above 100 µM; in series [2] (Escherichia coli, 24 h, E. coli resistant, pH 7, after one day, read-out: MIC), above 100 µM; in series [2] (Escherichia coli, 24 h, E. coli resistant, pH 8, after one day, read-out: MIC), above 100 µM; in series [2] (Escherichia coli, any of the bacterial strains, resistant E. coli, read-out: MIC (no antibacterial effect)), above 100 µM; in series [3] (Escherichia coli, ATCC25922, 24 h, E. coli sensitive, pH 5, after one day, read-out: MIC), above 100 µM. For the same molecule, the MIC is above 100 µM in series [3] (Escherichia coli, ATCC25922, 24 h, E. coli sensitive, pH 6, after one day, read-out: MIC); above 100 µM in [3] (Escherichia coli, ATCC25922, 24 h, E. coli sensitive, pH 7, after one day, read-out: MIC); above 100 µM in series [3] (Escherichia coli, ATCC25922, 24 h, E. coli sensitive, pH 8, after one day, read-out: MIC); above 100 µM in series [3] (Escherichia coli, ATCC25922, any of the bacterial strains, E. coli, read-out: MIC (no antibacterial effect)); above 100 µM in series [4] (Staphylococcus aureus, ATCC25923, 24 h, S. aureus sensitive, pH 7, after one day, read-out: MIC); above 100 µM in series [4] (Staphylococcus aureus, ATCC25923, 24 h, S. aureus sensitive, pH 8, after one day, read-out: MIC). In addition, the MIC in series [4] (Staphylococcus aureus, ATCC25923, any of the bacterial strains, S. aureus, read-out: MIC (no antibacterial effect)) is above 100 µM; in the series with S. aureus 272123 (MRSA) (Staphylococcus aureus, 24 h, pH 5, after one day, read-out: MIC), above 100 µM; in the series on S. aureus 272123 (MRSA) (Staphylococcus aureus, 24 h, pH 6, after one day, read-out: MIC), above 100 µM; with S. aureus 272123 (MRSA) (Staphylococcus aureus, 24 h, pH 7, after one day, read-out: MIC), above 100 µM; in the series with S. aureus 272123 (MRSA) (Staphylococcus aureus, 24 h, pH 8, after one day, read-out: MIC) it was above 100 µM; with S. aureus 272123 (MRSA) (Staphylococcus aureus, any of the bacterial strains, read-out: MIC (no antibacterial effect)), above 100 µM. Moreover, the IC50 in series [7] (pH 6), in series [7] (pH 7), in series [8] (pH 6) and in series [8] (pH 7) was above 100 µM each time.
